# From patent US12509431B2, “1,4-dihydroquinazolinone compounds and uses thereof” (Edgewise Therapeutics, Inc., priority 2022, dated 2025)
# Tested on: Rabbit Skeletal myofibrils (rabbit psoas muscle)
# Assay: Myofibril ATPase assay (PK/LDH NADH-coupled), skeletal myofibrils
# Assay type: biochemical
# Conditions: Table 8
# Method in brief: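 ATPase rate taken as linear-regression slope of A340 (NADH depletion through PK/LDH coupling) over a 75 min kinetic read, with psoas-derived rabbit skeletal myofibrils at pH 7.0. Four-parameter fits of vehicle-normalized activity give EC25 and, where reached, EC50.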
row,SMILES,Rabbit Psoas IC25 [µM]
1,C[C@@H](NC(=O)CN1Cc2c(ccc(F)c2F)NC1=O)c1ccc(C#N)cc1F [Compound B188],0.4649
2,C[C@@H](NC(=O)CN1Cc2c(ccc(F)c2F)NC1=O)c1ncc(F)cc1F [Compound B190],9.504
3,C[C@@H](NC(=O)CN1Cc2cc(C#N)ccc2NC1=O)c1ncc(F)cc1F [Compound B196],100
4,C[C@H](NC(=O)CN1Cc2cc(C#N)ccc2NC1=O)c1ncc(F)cc1F [Compound B197],87.6
5,C[C@H]1c2ccccc2NC(=O)N1CC(=O)N[C@@H](CO)c1ccc(F)cc1F [Compound B201],18.61
6,C[C@@H](NC(=O)CN1Cc2cc(F)ccc2NC1=O)c1ccc(C#N)cc1 [Compound B203],14.19
7,C[C@H](NC(=O)CN1Cc2cc(F)ccc2NC1=O)c1ccc(C#N)cc1 [Compound B204],0.1501
8,C[C@@H](NC(=O)CN1Cc2cc(F)ccc2NC1=O)c1ccc(C#N)cc1F [Compound B205],6.054
9,CC(C)C[C@@H](C(=O)N[C@@H](C)c1ccc(F)cc1F)N1Cc2cc(F)ccc2NC1=O [Compound B207],100
10,CC(C)C[C@H](C(=O)N[C@@H](C)c1ccc(F)cc1F)N1Cc2cc(F)ccc2NC1=O [Compound B208],100

# Now from value to compound:
row,Rabbit Psoas IC25 [µM],SMILES
1,100,COc1cccnc1[C@H](C)NC(=O)CN1Cc2cc(F)ccc2NC1=O [Compound B187]
2,100,Cc1cccnc1[C@@H](C)NC(=O)CN1Cc2cc(F)ccc2NC1=O [Compound B192]
3,41.67,Cc1cccnc1[C@H](C)NC(=O)CN1Cc2cc(F)ccc2NC1=O [Compound B193]
4,6.088,Cc1cnc([C@@H](C)NC(=O)CN2Cc3cc(F)ccc3NC2=O)c(F)c1 [Compound B194]
5,100,Cc1cnc([C@H](C)NC(=O)CN2Cc3cc(F)ccc3NC2=O)c(F)c1 [Compound B195]
6,100,C[C@@H](NC(=O)CN1Cc2cc(F)ccc2NC1=O)c1ncc(C#N)cc1F [Compound B198]
7,0.1741,CC(NC(=O)CN1Cc2cc(F)ccc2NC1=O)c1ccccc1Br (stereo not drawn) [Compound B202]

# Biological target: T1, Porcine Ventricle myofibrils (left ventricle of Yucatan minipigs) (Sus scrofa, UniProt P79293)
# T1 construct: Myofibrils from porcine cardiac muscle was isolated from the left ventricle of Yucatan minipigs; tissue Exemplar Genetics; host or cells: left ventricle of Yucatan minipigs
# T1 sequence (P79293 whole entry): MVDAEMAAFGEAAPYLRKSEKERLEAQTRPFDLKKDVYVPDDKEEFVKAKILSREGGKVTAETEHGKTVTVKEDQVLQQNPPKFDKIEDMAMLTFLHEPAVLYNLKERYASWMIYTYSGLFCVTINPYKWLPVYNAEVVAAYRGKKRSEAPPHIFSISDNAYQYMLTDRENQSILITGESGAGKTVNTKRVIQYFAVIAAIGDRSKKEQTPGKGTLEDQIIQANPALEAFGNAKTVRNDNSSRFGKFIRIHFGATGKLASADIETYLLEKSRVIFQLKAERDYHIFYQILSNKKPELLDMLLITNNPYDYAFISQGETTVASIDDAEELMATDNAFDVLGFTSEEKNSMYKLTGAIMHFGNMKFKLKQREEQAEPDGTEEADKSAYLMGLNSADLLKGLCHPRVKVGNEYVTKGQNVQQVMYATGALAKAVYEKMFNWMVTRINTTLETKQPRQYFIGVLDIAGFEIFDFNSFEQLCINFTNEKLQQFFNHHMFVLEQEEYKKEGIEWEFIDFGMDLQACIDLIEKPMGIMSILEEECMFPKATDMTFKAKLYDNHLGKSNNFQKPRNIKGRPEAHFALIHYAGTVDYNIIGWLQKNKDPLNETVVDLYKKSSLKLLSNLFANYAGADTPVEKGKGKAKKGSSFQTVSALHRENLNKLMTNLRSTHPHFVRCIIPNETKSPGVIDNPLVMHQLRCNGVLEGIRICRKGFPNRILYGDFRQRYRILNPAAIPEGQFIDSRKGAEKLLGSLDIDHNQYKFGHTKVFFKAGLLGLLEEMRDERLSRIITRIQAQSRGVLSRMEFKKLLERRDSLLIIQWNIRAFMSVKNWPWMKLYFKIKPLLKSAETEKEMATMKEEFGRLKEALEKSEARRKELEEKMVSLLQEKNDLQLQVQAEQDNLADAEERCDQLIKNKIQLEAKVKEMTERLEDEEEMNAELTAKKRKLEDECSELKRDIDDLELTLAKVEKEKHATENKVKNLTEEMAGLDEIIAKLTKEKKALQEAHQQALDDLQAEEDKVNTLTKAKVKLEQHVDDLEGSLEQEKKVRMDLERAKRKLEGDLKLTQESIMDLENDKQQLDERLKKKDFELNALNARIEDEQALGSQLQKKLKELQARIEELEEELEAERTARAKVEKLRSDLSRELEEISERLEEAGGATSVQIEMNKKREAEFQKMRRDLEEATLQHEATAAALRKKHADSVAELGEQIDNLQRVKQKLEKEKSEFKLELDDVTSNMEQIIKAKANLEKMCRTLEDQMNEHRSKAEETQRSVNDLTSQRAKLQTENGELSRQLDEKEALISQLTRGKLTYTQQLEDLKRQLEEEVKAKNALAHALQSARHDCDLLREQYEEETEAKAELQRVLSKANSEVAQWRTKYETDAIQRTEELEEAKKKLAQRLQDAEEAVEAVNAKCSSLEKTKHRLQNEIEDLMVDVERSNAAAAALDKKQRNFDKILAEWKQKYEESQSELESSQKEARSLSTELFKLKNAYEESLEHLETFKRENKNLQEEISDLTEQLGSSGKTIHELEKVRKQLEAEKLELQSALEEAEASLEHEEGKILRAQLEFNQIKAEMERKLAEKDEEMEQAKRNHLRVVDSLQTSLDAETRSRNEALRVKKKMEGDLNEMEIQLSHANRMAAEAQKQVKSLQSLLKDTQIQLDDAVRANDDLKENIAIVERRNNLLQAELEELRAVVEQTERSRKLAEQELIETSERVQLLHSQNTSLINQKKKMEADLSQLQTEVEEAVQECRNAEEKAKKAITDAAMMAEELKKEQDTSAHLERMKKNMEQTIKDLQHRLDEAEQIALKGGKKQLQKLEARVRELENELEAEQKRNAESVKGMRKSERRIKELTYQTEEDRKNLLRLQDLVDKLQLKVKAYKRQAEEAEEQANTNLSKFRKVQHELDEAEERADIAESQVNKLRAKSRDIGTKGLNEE
# Assay: Myofibril ATPase assay (PK/LDH NADH-coupled), ventricle myofibrils
# Assay type: biochemical
# Conditions: Table 8
# Method in brief: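 NADH depletion (A340) coupled through pyruvate kinase/lactate dehydrogenase reports ATPase rate of porcine left-ventricle myofibrils over 75 min kinetic reads. Regression slopes, vehicle-normalized, fitted by 4-parameter logistic give EC25 and, where available, EC50.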
row,SMILES,Porcine Ventricle IC25 [µM]
1,C[C@@H](NC(=O)CN1Cc2c(ccc(F)c2F)NC1=O)c1ccc(C#N)cc1F [Compound B188],1.834
2,C[C@@H](NC(=O)CN1Cc2c(ccc(F)c2F)NC1=O)c1ncc(F)cc1F [Compound B190],50.31
3,C[C@@H](NC(=O)CN1Cc2cc(C#N)ccc2NC1=O)c1ncc(F)cc1F [Compound B196],100
4,C[C@H](NC(=O)CN1Cc2cc(C#N)ccc2NC1=O)c1ncc(F)cc1F [Compound B197],100
5,C[C@H]1c2ccccc2NC(=O)N1CC(=O)N[C@@H](CO)c1ccc(F)cc1F [Compound B201],100
6,C[C@@H](NC(=O)CN1Cc2cc(F)ccc2NC1=O)c1ccc(C#N)cc1 [Compound B203],23.26
7,C[C@H](NC(=O)CN1Cc2cc(F)ccc2NC1=O)c1ccc(C#N)cc1 [Compound B204],1.393
8,C[C@@H](NC(=O)CN1Cc2cc(F)ccc2NC1=O)c1ccc(C#N)cc1F [Compound B205],16.29
9,CC(C)C[C@@H](C(=O)N[C@@H](C)c1ccc(F)cc1F)N1Cc2cc(F)ccc2NC1=O [Compound B207],100
10,CC(C)C[C@H](C(=O)N[C@@H](C)c1ccc(F)cc1F)N1Cc2cc(F)ccc2NC1=O [Compound B208],100

# Other lines, results leading:
row,Porcine Ventricle IC25 [µM],SMILES
1,100,COc1cccnc1[C@H](C)NC(=O)CN1Cc2cc(F)ccc2NC1=O [Compound B187]
2,100,Cc1cccnc1[C@@H](C)NC(=O)CN1Cc2cc(F)ccc2NC1=O [Compound B192]
3,40.61,Cc1cccnc1[C@H](C)NC(=O)CN1Cc2cc(F)ccc2NC1=O [Compound B193]
4,78.56,Cc1cnc([C@@H](C)NC(=O)CN2Cc3cc(F)ccc3NC2=O)c(F)c1 [Compound B194]
5,100,Cc1cnc([C@H](C)NC(=O)CN2Cc3cc(F)ccc3NC2=O)c(F)c1 [Compound B195]
6,100,C[C@@H](NC(=O)CN1Cc2cc(F)ccc2NC1=O)c1ncc(C#N)cc1F [Compound B198]
7,1.035,CC(NC(=O)CN1Cc2cc(F)ccc2NC1=O)c1ccccc1Br (stereo not drawn) [Compound B202]

# Tested on: Porcine Atria myofibrils
# Assay: Myofibril ATPase assay (PK/LDH NADH-coupled), atria myofibrils
# Assay type: biochemical
# Conditions: Table 8
# Method in brief: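 Values are EC25% (and, for inhibitors, EC50%) from 4-parameter logistic fits of activity normalized to vehicle wells. Rates came from linear regression of 340 nm kinetic reads (every 1.5-2 min, 75 min) of NADH-coupled ATP turnover by porcine atria myofibrils.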
row,SMILES,Porcine Atria IC25 [µM]
1,C[C@@H](NC(=O)CN1Cc2c(ccc(F)c2F)NC1=O)c1ccc(C#N)cc1F [Compound B188],0.42
2,C[C@@H](NC(=O)CN1Cc2c(ccc(F)c2F)NC1=O)c1ncc(F)cc1F [Compound B190],17.83
3,C[C@@H](NC(=O)CN1Cc2cc(C#N)ccc2NC1=O)c1ncc(F)cc1F [Compound B196],100.00
4,C[C@H](NC(=O)CN1Cc2cc(C#N)ccc2NC1=O)c1ncc(F)cc1F [Compound B197],18.70
5,C[C@H]1c2ccccc2NC(=O)N1CC(=O)N[C@@H](CO)c1ccc(F)cc1F [Compound B201],25.98
6,C[C@@H](NC(=O)CN1Cc2cc(F)ccc2NC1=O)c1ccc(C#N)cc1 [Compound B203],5.48
7,C[C@H](NC(=O)CN1Cc2cc(F)ccc2NC1=O)c1ccc(C#N)cc1 [Compound B204],0.27
8,C[C@@H](NC(=O)CN1Cc2cc(F)ccc2NC1=O)c1ccc(C#N)cc1F [Compound B205],2.07
9,CC(C)C[C@@H](C(=O)N[C@@H](C)c1ccc(F)cc1F)N1Cc2cc(F)ccc2NC1=O [Compound B207],100.00
10,CC(C)C[C@H](C(=O)N[C@@H](C)c1ccc(F)cc1F)N1Cc2cc(F)ccc2NC1=O [Compound B208],100.00

# Second part, the compound after the results:
row,Porcine Atria IC25 [µM],SMILES
1,68.80,COc1cccnc1[C@H](C)NC(=O)CN1Cc2cc(F)ccc2NC1=O [Compound B187]
2,100.00,Cc1cccnc1[C@@H](C)NC(=O)CN1Cc2cc(F)ccc2NC1=O [Compound B192]
3,28.17,Cc1cccnc1[C@H](C)NC(=O)CN1Cc2cc(F)ccc2NC1=O [Compound B193]
4,3.71,Cc1cnc([C@@H](C)NC(=O)CN2Cc3cc(F)ccc3NC2=O)c(F)c1 [Compound B194]
5,100.00,Cc1cnc([C@H](C)NC(=O)CN2Cc3cc(F)ccc3NC2=O)c(F)c1 [Compound B195]
6,100.00,C[C@@H](NC(=O)CN1Cc2cc(F)ccc2NC1=O)c1ncc(C#N)cc1F [Compound B198]
7,0.18,CC(NC(=O)CN1Cc2cc(F)ccc2NC1=O)c1ccccc1Br (stereo not drawn) [Compound B202]
